In ChEMBL document CHEMBL3272338, “Bis-basic-substituted polycyclic aromatic compounds. A new class of antiviral agents. 8. Bis-basic derivatives of carbazole, dibenzofuran, and dibenzothiophene” (1977):
The source made the active and inactive calls. No cut-off for these calls is given here.

Legend:
[1] = system: Encephalomyocarditis virus; assay: Antiviral activity against Encephalomyocarditis virus infected in CF-1 mouse assessed as host survival time ratio at 250 mg/kg, po administered via gavage as single dose at 22 to 28 hrs before virus inoculation; assay type: functional
[2] = system: Venezuelan equine encephalitis virus; assay: Antiviral activity against Venezuelan equine encephalitis virus infected in po dosed monkey assessed as reduction in viremia; assay type: functional, organism-based
Human alphaherpesvirus 1 [3] = assay: (§1) In vivo antiviral activity against Herpesvirus hominis type 1 infected in hairless mouse assessed as suppression of ulcerated zoster-like lesions development administered topically at 2, 4 and 6 hrs after virus inoculation followed by continuous treatment daily for 4 days four times a day at 2 hrs interval measured on 8th day post-infection; assay type: functional, organism-based
Human alphaherpesvirus 1 [4] = assay: In vitro antiviral activity against Herpesvirus hominis type 1 infected in African green monkey Vero cells assessed as log reduction of virus titer by cytopathologic assay (reference value: 5); assay type: functional
Human alphaherpesvirus 1 [5] = assay: In vivo antiviral activity against Herpesvirus hominis type 1 infected in po dosed white mouse assessed as suppression of raised, blister-like lesions; assay type: functional, organism-based
[6] = system: Encephalomyocarditis virus; assay: Antiviral activity against Encephalomyocarditis virus infected in CF-1 mouse assessed as host survival time ratio at 50 mg/kg, po administered via gavage at 28, 22, 2 hrs before and 2 hrs after virus inoculation; assay type: functional
[7] = system: Encephalomyocarditis virus; assay: Antiviral activity against Encephalomyocarditis virus infected in CF-1 mouse assessed as host survival time ratio at 50 mg/kg, sc administered 28, 22, 2 hrs before and 2 hrs after virus inoculation; assay type: functional; conditions: route subcutaneous
Mus musculus [8] = assay: Induction of interferon induction in sc dosed mouse serum; assay type: functional, organism-based
Human alphaherpesvirus 1 [9] = assay: as §1, with “decrease in lesion score” for “suppression of ulcerated zoster-like lesions development”; assay type: functional, organism-based
[10] = system: Encephalomyocarditis virus; assay: Antiviral activity against Encephalomyocarditis virus infected in CF-1 mouse assessed as host survival time ratio at 250 mg/kg, sc administered 28, 22, 2 hrs before and 2 hrs after virus inoculation; assay type: functional; conditions: route subcutaneous
Mus musculus [11] = assay: Induction of interferon induction in po dosed mouse serum; assay type: functional, organism-based
[12] = system: Encephalomyocarditis virus; assay: Antiviral activity against Encephalomyocarditis virus infected in CF-1 mouse assessed as host survival time ratio at 10 mg/kg, sc administered 28, 22, 2 hrs before and 2 hrs after virus inoculation; assay type: functional; conditions: route subcutaneous
Semliki Forest virus = assay: Antiviral activity against Semliki forest virus infected in mouse; assay type: functional, organism-based
Vaccinia virus = assay: Antiviral activity against Vaccinia virus infected in mouse; assay type: functional, organism-based; conditions: Orthopoxvirus vaccinia
Influenza A virus [13] = assay: Antiviral activity against Influenza A virus A2 Jap/305 infected in mouse; assay type: functional, organism-based
Influenza A virus [14] = assay: Antiviral activity against Influenza A virus A0 (Pr8) infected in mouse; assay type: functional, organism-based
[15] = system: Encephalomyocarditis virus; assay: Antiviral activity against Encephalomyocarditis virus infected in CF-1 mouse assessed as host survival time ratio at 250 mg/kg, sc administered as single dose at 22 hrs before virus inoculation; assay type: functional; conditions: route subcutaneous

Structure (SMILES) | Ratio [1] | inhibition [2] | inhibition (Human alphaherpesvirus 1 [3]) | log(activity) (Human alphaherpesvirus 1 [4]) | inhibition (Human alphaherpesvirus 1 [5]) | Ratio [6] | Ratio [7] | Activity (Mus musculus [8]) | inhibition (Human alphaherpesvirus 1 [9]) | Ratio [10] | Activity (Mus musculus [11]) | Ratio [12] | Activity (Semliki Forest virus) | Activity (Vaccinia virus) | Activity (Influenza A virus [13]) | Activity (Influenza A virus [14]) | Ratio [15]
CN(C)CC(=O)c1ccc2oc3ccc(C(=O)CN(C)C)cc3c2c1.Cl | 2.2 | Active | inactive | 2.5 | inactive | 1.8 | 1.64 | Active | Active | 2 | Active | 1.13 | Active | Active |  |  | 
CN(C)CC(=O)c1ccc2sc3ccc(C(=O)CN(C)C)cc3c2c1.Cl | 2.29 | Active | inactive | 2.5 | inactive | 1.75 | 2.29 | Active | Active | 2.29 | Active | 1.1 | Active | Active | Active | Active | 
Cl.O=C(CCCN1CCC(Cc2ccccc2)CC1)c1ccc2oc3ccc(C(=O)CCCN4CCC(Cc5ccccc5)CC4)cc3c2c1 | 0.98 |  |  |  |  | 1.07 | 1.7 |  |  |  |  | 1.27 |  |  |  |  | 1.82
CC(CN(C)C)Oc1ccc2oc3ccc(OC(C)CN(C)C)cc3c2c1.O=C(O)CC(O)(CC(=O)O)C(=O)O (stereo not given) | 0.84 |  |  |  |  | 0.84 | 1.08 |  |  | 0.9 |  | 0.94 |  |  |  |  | 
CCN(CC)CCCOc1ccc2oc3ccc(OCCCN(CC)CC)cc3c2c1 | 0.92 |  |  |  |  | 0.98 | 0.88 |  |  |  |  | 0.98 |  |  |  |  | 1.47
CCn1c2ccc(C(=O)CCCN3CCCCC3)cc2c2cc(C(=O)CCCN3CCCCC3)ccc21.Cl | 1.2 |  |  |  |  | 1.09 | 1.58 |  |  | 0.56 |  | 1.68 |  |  |  |  | 
CCn1c2ccc(OCCN3CCCCC3)cc2c2cc(OCCN3CCCCC3)ccc21.Cl | 1.09 |  |  |  |  | 1.09 | 1.32 |  |  | 1.25 |  | 1.16 |  |  |  |  | 
CC(COc1ccc2sc3ccc(OCC(C)CN(C)C)cc3c2c1)CN(C)C.Cl (stereo not given) | 0.94 |  |  |  |  | 1.04 | 1.08 |  |  | 0.84 |  | 0.96 |  |  |  |  | 
CN(C)CCCOC(=O)c1ccc2oc3ccc(C(=O)OCCCN(C)C)cc3c2c1.Cl | 1.07 |  |  |  |  | 1.07 | 1.26 |  |  | 1.36 |  | 1.19 |  |  |  |  | 
CC1CCN(CCCC(=O)c2ccc3oc4ccc(C(=O)CCCN5CCC(C)CC5)cc4c3c2)CC1 | 1.19 |  |  |  |  | 1.11 | 2.13 |  |  | 2.04 |  | 1.23 |  |  |  |  | 
